According to US8436031B2 (priority 2004, dated 2013):

How the values were obtained:
[1] = target: SoxS (Escherichia coli, UniProt P0A9E2); assay: Chemiluminescence DNA binding assay, SoxS; parameters: species or system E. coli; conditions: E. coli SoxS; DNA binding
[2] = target: SlyA (Salmonella typhimurium, UniProt P40676); assay: Chemiluminescence DNA binding assay, SlyA (MarR protein control); parameters: species or system S. typhimurium
[3] = target: ExsA (Pseudomonas aeruginosa, UniProt P26993); assay: Chemiluminescence DNA binding assay, ExsA; parameters: species or system P. aeruginosa
ExsA, sequence (P26993 whole entry): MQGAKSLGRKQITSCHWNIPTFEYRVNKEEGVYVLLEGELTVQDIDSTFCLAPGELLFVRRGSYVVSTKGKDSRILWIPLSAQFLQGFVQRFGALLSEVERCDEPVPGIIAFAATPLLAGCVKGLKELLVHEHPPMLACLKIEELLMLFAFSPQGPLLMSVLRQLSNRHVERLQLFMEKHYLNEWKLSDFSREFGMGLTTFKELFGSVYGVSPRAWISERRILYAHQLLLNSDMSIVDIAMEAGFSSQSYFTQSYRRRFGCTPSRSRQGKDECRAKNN

[4] = target: Rma (Salmonella typhimurium, UniProt H9L484); assay: Chemiluminescence DNA binding assay, Rma; parameters: species or system S. typhimurium
Rma, sequence (H9L484 whole entry): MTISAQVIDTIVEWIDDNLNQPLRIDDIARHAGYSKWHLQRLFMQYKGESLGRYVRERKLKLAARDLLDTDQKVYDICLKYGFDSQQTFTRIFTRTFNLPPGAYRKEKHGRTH

[5] = target: Rob (Escherichia coli, UniProt P0ACI0); assay: Chemiluminescence DNA binding assay, Rob; conditions: E. coli Rob
Rob, sequence (P0ACI0 whole entry): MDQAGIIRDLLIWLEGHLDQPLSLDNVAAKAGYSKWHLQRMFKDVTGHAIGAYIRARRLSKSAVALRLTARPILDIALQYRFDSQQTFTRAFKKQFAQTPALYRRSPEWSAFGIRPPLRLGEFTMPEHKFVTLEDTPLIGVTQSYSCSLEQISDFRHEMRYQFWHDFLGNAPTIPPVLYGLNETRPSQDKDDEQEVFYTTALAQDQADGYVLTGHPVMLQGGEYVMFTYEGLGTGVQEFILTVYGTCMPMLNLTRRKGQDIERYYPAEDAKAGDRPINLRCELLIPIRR

[6] = target: LcrF (VirF) (Yersinia pseudotuberculosis, UniProt Q663J0); assay: biochemical; assay type: binding, Y. pseudotuberculosis
LcrF (VirF), sequence (Q663J0 1-271): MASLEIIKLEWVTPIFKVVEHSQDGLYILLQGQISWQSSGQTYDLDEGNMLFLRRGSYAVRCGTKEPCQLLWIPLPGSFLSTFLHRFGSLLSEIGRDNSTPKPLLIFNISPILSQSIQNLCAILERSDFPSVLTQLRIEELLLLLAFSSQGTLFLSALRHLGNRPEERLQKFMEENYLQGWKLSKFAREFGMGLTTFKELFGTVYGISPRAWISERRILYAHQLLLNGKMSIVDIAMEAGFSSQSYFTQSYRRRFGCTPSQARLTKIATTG

[7] = target: MarA (Escherichia coli, UniProt P0ACH5); assay: Chemiluminescence DNA binding assay, MarA; conditions: E. coli MarA
MarA, sequence (P0ACH5 whole entry): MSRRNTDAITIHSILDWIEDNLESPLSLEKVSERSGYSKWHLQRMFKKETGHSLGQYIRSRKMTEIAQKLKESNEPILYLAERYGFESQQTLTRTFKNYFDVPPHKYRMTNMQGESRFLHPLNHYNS

[8] = target: PqrA (Proteus mirabilis, UniProt B4ETM4); assay: Chemiluminescence DNA binding assay, PqrA; conditions: P. mirabilis PqrA
PqrA, sequence (B4ETM4 entry or part of it): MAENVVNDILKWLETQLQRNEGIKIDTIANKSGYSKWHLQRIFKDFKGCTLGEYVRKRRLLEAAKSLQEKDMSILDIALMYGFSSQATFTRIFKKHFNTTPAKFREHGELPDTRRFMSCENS

SoxS, sequence (P0A9E2 whole entry): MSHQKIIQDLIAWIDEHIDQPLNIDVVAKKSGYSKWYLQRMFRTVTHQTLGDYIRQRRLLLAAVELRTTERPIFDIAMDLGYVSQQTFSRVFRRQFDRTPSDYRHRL
SlyA, sequence (P40676 whole entry): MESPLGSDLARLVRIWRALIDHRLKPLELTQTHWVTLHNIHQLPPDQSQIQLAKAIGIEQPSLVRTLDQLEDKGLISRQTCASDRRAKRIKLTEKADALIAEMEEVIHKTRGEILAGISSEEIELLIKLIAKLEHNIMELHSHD

Structure (SMILES) | EC50 [1] [µM] | EC50 [2] [µM] | EC50 [3] [µM] | EC50 [4] [µM] | EC50 [5] [µM] | EC50 [6] [µM] | EC50 [7] [µM] | EC50 [8] [µM]
O=C(Nc1ccc(-c2nc3ccc([N+](=O)[O-])cc3n2O)cc1)c1cccc(Cl)c1 [ASX] | 4.9 | 21.7 | 2.5 | 3.5 | 3.4 |  |  | 
CN(C)c1ccc(C(=O)Nc2ccc(-c3nc4ccc([N+](=O)[O-])cc4n3O)cc2)cc1 [ATE] | 0.82 | 14.3 | 1.9 | 1.8 | 1.3 | 36.5 | 1.2 | 1.4
O=[N+]([O-])c1ccc2nc(-c3ccc(-c4ccccc4)o3)n(O)c2c1 [ARD] | 8.3 | 11.9 | 15.6 | 17 | 28 |  | 11.7 | 13.6
O=C(Nc1ccc(-c2nc3ccc([N+](=O)[O-])cc3n2O)cc1)c1ccc(F)cc1 [ASU] | 3 | 51 | 4 | 4.9 | 4.7 | 17.7 |  | 
